Where “and” joins values, the source holds several entries; their conditions need not be identical. Equal entries are not always repeated. Entries after “also recorded” stand apart in the source; their conditions may differ.
Assays:
[1] = test system: Amb a 1-specific T cell lines (TCL); test: T cell epitope mapping of Amb a 1.3: proliferation (3H-thymidine uptake) of TCL stimulated with synthetic peptides; assay type: cell-based, human; settings: for No. positive patients SI > 3 / No. positive patients SI > 5 / % (positive patients SI > 3) / % (positive patients SI > 5): TCL from 48 ragweed pollen-allergic patients, peptide 5 μg/ml; for No. positive patients SI > 3 / No. positive patients SI > 5: 3H-thymidine uptake after 48 hrs; for No. positive patients SI > 3 / % (positive patients SI > 3): stimulation index > 3; for No. positive patients SI > 5 / % (positive patients SI > 5): stimulation index > 5
Procedure, shortened: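 Amb a 1-specific TCL from ragweed-allergic patients, raised with ragweed extract or rAmb a 1.3, stimulated 48 h with 121 overlapping 12-mer peptides plus one C-terminal 13-mer (9-residue overlap) at 5 μg/ml. Proliferation by 3H-thymidine uptake; SI against the mean cpm of the ten least stimulating peptides, epitope when SI ≥3.0.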

[2] = test system: Amb a 1-specific TCL and TCC; test: Proliferation of Amb a 1-specific TCL and TCC with allergens and chains; assay type: cell-based, human
Procedure: Peripheral blood mononuclear cells (PBMC) were isolated from heparinized blood of allergic patients by Ficoll density gradient centrifugation. To generate allergen-specific T cell lines (TCL) and T cell clones (TCC), 1.5×10^6 PBMC were stimulated with optimal doses of ragweed or mugwort extract (4 μg/ml) or rAmb a 1.3 (10 μg/ml) in 24-well flat-bottomed culture plates (Costar, USA). After 5 days human rIL-2 (10 U/ml, Boehringer, Mannheim, Germany) were added and cultures were continued for additional 7 days. Then, T cell blasts were isolated by density centrifugation. The majority of T cell blasts was further expanded with IL-2 and irradiated PBMC. A small number of T cell blasts were used to establish monoclonal T cell cultures by limiting dilution: 0.3 T cells/well were seeded into 96 well round bottom plates (Nunclone) in the presence of 2×10^5 irradiated (60 Gy) PBMC, 0.25% v/v PHA (Gibco, USA) and rIL-2 (4 U/well) in the medium mentioned above. After 14-21 days, growing microcultures were expanded at weekly intervals with irradiated PBMC and rIL-2. The specificity of TCC was assessed in proliferation assays using irradiated allogeneic or HLA-matched PBMC or irradiated EBV-transformed allogeneic B-cells and 5 μg/ml Amb a 1.3. After 48 hours, cellular uptake of tritiated (^3H)-thymidine was performed to measure proliferation in counts per minute (cpm). When the stimulation index (SI; ratio between cpm obtained in cultures containing TCC plus autologous APC plus antigen, and cpm obtained in cultures containing TCC and APC alone) was >10, responses were considered as positive. Allergen-specific TCC were expanded by alternating turns of stimulation with autologous irradiated APC and allergen or with allogeneic feeder cells and rIL-2.
Proliferation and cytokine responses were determined.
When compared with the results of the T cell epitope recognition in Table 3, 45/46 patients (98%) would recognize one or more epitopes in the Amb a 1 alpha-chain. […]

[3] = test system: IgE of sera from ragweed pollen allergic patients; test: SDS-PAGE IgE immunoblot with patients' sera; assay type: binding, human
Procedure: Membrane strips were incubated with sera from ragweed pollen allergic patients (lanes 1-29) or with serum from a non-allergic donor (lane C). Bound IgE was detected with ^125I-labeled goat anti-human IgE. Ragweed pollen-sensitized patients were recruited in Austria (lanes 1-13) or in Italy (lanes 14-29).
The proteins were analyzed via SDS-PAGE using 15% acrylamide gels and 0.1% Coomassie staining with a molecular weight standard RPN 756 (GE Healthcare Life Sciences). Sera from allergic patients were tested for positive IgE-reactivity. rAmb a 1 and rArt v 6 were separated on 15% (w/w) polyacrylamide gels and electroblotted onto a PVDF membrane. After blocking the non-specific protein binding sites with Blocking buffer (per L: 7.5 g Na2HPO4, 1 g NaH2PO4, 5 g BSA and 5 mL Tween 20), the membrane was incubated with patients' sera (diluted 1:10 in Blocking buffer) for more than 6 hours at room temperature. The membrane was washed for at least 30 minutes with Blocking buffer before it was incubated with radiolabeled [^125 I]-anti human IgE (RAST, 5 µCi, MedPro) diluted in Blocking buffer (1:40) overnight at room temperature. After a second 30-minute wash, the membrane was placed onto an imaging plate. The screen was exposed for at least 24 hours and developed using a PhosphoImager Bas-1800 II scanner for detection and the instrument's supporting software (Fujifilm).
nAmb a 1 undergoes spontaneously proteolysis during purification and it is cleaved into two chains, alpha and beta chain, respectively.

[4] = test system: Amb a 1-specific TCL and TCC; test: Cytokine production in TCL and TCC (ELISA of supernatants); assay type: cell-based, human
Procedure: T cells were washed and incubated with irradiated autologous APC in the presence of the stimulant (5 μg/ml) for 48 hours. Cytokine levels in the resulting supernatants were measured in ELISA using matched antibody pairs (Endogen, USA) (sensitivity limits: IL-4: 9 pg/ml, IFN-γ: 9 pg/ml). Cultures containing TCC and APC alone served as negative controls. TCC with a ratio of IFN-γ/IL-4>10 were classified as Th1, 0.1-10 as Th0 and <0.1 as Th2. […] Proliferation and cytokine responses were determined.

[5] = test system: IgE of sera from ragweed pollen allergic patients; test: IgE dot-blot / non-denaturing IgE binding of recombinant Amb a 1.3; design: species or system human; settings: sera from 17 ragweed pollen allergic patients
Description: E. coli-produced rAmb a 1.3 was purified as described above and dotted on nitrocellulose membranes.
Thus, another approach for producing recombinant reagents with full IgE-binding activity was pursued, as described in section 4. Despite its low IgE-binding activity, rAmb a 1.3 was successfully used in vitro for T cell epitope mapping and proliferation assays, as correct folding is not essential for T cell recognition (see example 2).

[6] = test system: IgE of sera from ragweed allergic patients; test: Human IgE ELISA of purified alpha chain; assay type: binding; settings: modified (version 1) alpha chain of Amb a 1.3; 12 patients (FIG. 19)
Description: If a peptide of the invention is to be used as a diagnostic reagent, it is not necessary that the peptide or protein has reduced IgE binding activity compared to the native Amb a 1 allergen. IgE binding activity of peptides can be determined by, for example, an enzyme linked immunosorbent assay (ELISA) using, for example, sera obtained from an individual (i.e. an allergic individual) that has been previously exposed to the native Amb a 1. Briefly, a peptide to be tested is coated onto wells of a microtiter plate. After washing and blocking the wells, antibody solution consisting of the serum or plasma of an allergic individual who has been exposed to the peptide being tested or the protein from which it was derived is incubated in the wells. The plasma is generally depleted of IgG before incubation. However, the depletion is not necessary if highly specific anti IgE-antibodies are used. Furthermore, allergic individuals who have not undergone specific immunotherapy have in some cases almost no detectable IgG antibodies specific for the allergen in question. […] The amount of IgE binding is then quantified and compared to the amount of IgE bound by a purified native Amb a 1 protein. Alternatively, the binding activity of a peptide can be determined by Western blot analysis. […] After incubation with the labelled secondary antibody, the amount of IgE bound is then determined and quantified. […]

Molecule: VQDKGMLATVAF (Amb a 1 fragment) [Peptide 77]
- reactivity with T cells isolated from allergic individuals [1]: reactivity with T cells
- No. positive patients SI > 3 [1]: 7
- No. positive patients SI > 5 [1]: 4
- % (positive patients SI > 3) [1]: 14.6%
- % (positive patients SI > 5) [1]: 8.3%

Molecule: NYDRWGTYAIGG (Amb a 1 fragment) [Peptide 89]
- reactivity with T cells isolated from allergic individuals [1]: reactivity with T cells
- No. positive patients SI > 3 [1]: 11
- No. positive patients SI > 5 [1]: 6
- % (positive patients SI > 3) [1]: 22.9%
- % (positive patients SI > 5) [1]: 12.5%

B1: beta-chain: recombinant modified (version 1) Amb a 1.3 beta chain, aa 26-173, 148 amino acids; called beta chain in Example 4 (protein)
beta: AEGVGEILPSVNETRSLQACEAYNIIDKCWRGKADWENNRQALADCAQGFAKGTYGGKWGDVYTVTSNLDDDVANPKEGTLRFAAAQNRPLWIIFKNDMVINLNQELVVNSDKTIDGRGVKVEIINGGLTLMNVKNIIIHNINIHDVK
modifications: Amb a 1 beta chain
- proliferation, % of the response to Amb a 1 ([2]; 2 TCL with strong reactivity to Amb a 1 (FIG. 20), modified (version 1) chains of Amb a 1.3): 38% and 19%

B2: rAmb a 1.3: E. coli-produced full-length recombinant Amb a 1.3 isoform (R2 clone) (protein)
chain: AEGVGEILPSVNETRSLQACEALNIIDKCWRGKADWENNRQALADCAQGFAKGTYGGKWGDVYTVTSNLDDDVANPKEGTLRFAAAQNRPLWIIFKNDMVINLNQELVVNSDKTIDGRGVKVEIINGGLTLMNVKNIIIHNINIHDVKVLPGGMIKSNDGPPILRQASDGDTINVAGSSQIWIDHCSLSKSFDGLVDVTLGSTHVTISNCKFTQQSKAILLGADDTHVQDKGMLATVAFNMFTDNVDQRMPRCRFGFFQVVNNNYDRWGTYAIGGSSAPTILCQGNRFLAPDDQIKKNVLARTGTGAAESMAWNWRSDKDLLENGAIFVTSGSDPVLTPVQSAGMIPAEPGEAAIKLTSSAGVFSCHPGAPC
modifications: left off: things letters cannot carry
- reaction with patients IgE after reduction and heat treatment ([3]; standard procedure for SDS-PAGE/immunoblotting): reacted with patients IgE
- T cell proliferation compared with natural Amb a 1 ([2]; PBMC, TCL and TCC, different concentrations): comparable T cell proliferations
- cytokine production compared with ragweed extract (FIG. 5) or natural Amb a 1 (FIG. 6) [4]: comparable cytokine production
- IgE reactivity in non-denaturing assays (dot blot, ELISA) [5]: not able to bind human IgE; also recorded: very weak or no IgE reactivity

B3: alpha chain of Amb a 1.3 (modified version 1): recombinant modified (version 1) Amb a 1.3 alpha chain, aa 174-397, 224 amino acids; called alpha chain in Example 4 (protein)
alpha: VLPGGMIKSNDGPPILRQASDGDTINVAGSSQIWIDHCSLSKSFDGLVDVTLGSTHVTISNCKFTQQSKAILLGADDTHVQDKGMLATVAFNMFTDNVDQRMPRCRFGFFQVVNNNYDRWGTYAIGGSSAPTILCQGNRFLAPDDQIKKNVLARTGTGAAESMAWNWRSDKDLLENGAIFVTSGSDPVLTPVQSAGMIPAEPGEAAIKLTSSAGVLSCRPGAPC
modifications: Amb a 1 alpha chain
- IgE-binding activity in vitro (ELISA) [6]: low/no IgE-binding activity
- reaction of 2 TCC specific for epitopes within Amb a 1-alpha ([2]; modified (version 1) chains of Amb a 1.3): reacted

B4: beta chain: beta chain of naturally processed Amb a 1, N-terminal part, 138 amino acids (protein)
chain: AEGVGEILPSVNETRSLQACEAYNIIDKCWRGKADWENNRQALADCAQGFAKGTYGGKWGDVYTVTSNLDDDVANPKEGTLRFAAAQNRPLWIIFKNDMVINLNQELVVNSDKTIDGRGVKVEIINGGLTLMNVKNIIIHNINIHDVKVLPGGMIKSNDGP
modifications: Amb a 1 beta chain
notes: beta chain of naturally processed Amb a 1, N-terminal part, 138 amino acids
- IgE reactivity of the Amb a 1 chains [3]: strongly recognized; also recorded: contains most of the IgE epitopes of Amb a 1
- % of patients whose IgE recognized the chain ([3]; chains of nAmb a 1, sera from Italy, Canada and Austria (FIG. 9)): 90%
